Laboratory results published in patent US4083947A, “Organ visualization” (The Radiochemical Centre Limited, priority 1975, dated 1978).

Test: Tissue distribution of selenium-75-labelled sterols in rats, sixth day post-injection
Type: in vivo, rats of the C.F.Y. strain
Conditions: tail vein, dose: 1, 7: 40 μCi, 6: 50 μCi, 3: 30 μCi, 4: 1.5 μCi, 5: 10 μCi, 8: 6.3 μCi; for % dose kg./g. in Ovaries: female rats; for % dose kg./g. in Adrenals / % dose kg./g. in Blood / % dose kg./g. in Kidneys / % dose kg./g. in Liver / % dose kg./g. in Muscle: male and female rats; for % dose kg./g. in Testes: male rats; for Concentration Ratio; Adrenals: Kidneys / Concentration Ratio; Adrenals: Liver / Concentration Ratio; Adrenals: Muscle / Concentration Ratio; Adrenals: Ovaries / Concentration Ratio; Adrenals: Testes / Concentration Ratio; Adrenals: Blood: rats; for Concentration Ratio; Adrenals: Blood: 8640 min
Protocol: The tissue distribution and target to non-target concentration ratios for seven compounds were studied in male and female rats (150-180 g) of the C.F.Y. strain. Each compound (in a volume of 0.3ml) was injected via the tail vein into two male and two female rats. The animals were then housed in separate metabolism cages prior to sacrifice and dissecting on the sixth day post-injection.

Compound	% dose kg./g. in Ovaries	% dose kg./g. in Adrenals	% dose kg./g. in Blood	% dose kg./g. in Kidneys	% dose kg./g. in Liver	% dose kg./g. in Muscle	% dose kg./g. in Testes	Concentration Ratio; Adrenals: Kidneys	Concentration Ratio; Adrenals: Liver	Concentration Ratio; Adrenals: Muscle	Concentration Ratio; Adrenals: Ovaries	Concentration Ratio; Adrenals: Testes	Concentration Ratio; Adrenals: Blood
CC(C)CCC[C@@H](C)[C@H]1CC[C@H]2[C@@H]3C[C@@H](C[75Se]Cc4ccccc4)C4=C(CC[C@H](O)C4)[C@H]3CC[C@]12C [Example 5, 6β-benzylselenomethyl-19-norcholest-5(10)-en-3β-ol-^75 Se]	2.425 % dose kg./g.	5.286 % dose kg./g.	0.042 % dose kg./g.	0.083 % dose kg./g.	0.393 % dose kg./g.	0.015 % dose kg./g.	0.042 % dose kg./g.	63.4	13.4	355.3	2.6	101.4	126.3
CC(C)CCC[C@@H](C)[C@H]1CC[C@H]2[C@@H]3C[C@@H](C[75Se]C4CCCCC4)C4=C(CC[C@H](O)C4)[C@H]3CC[C@]12C [Example 4, 6β-cyclohexylselenomethyl-19-norcholest-5(10)-en-3β-ol-^75 Se]	2.568 % dose kg./g.	3.609 % dose kg./g.	0.026 % dose kg./g.	0.038 % dose kg./g.	0.148 % dose kg./g.	0.012 % dose kg./g.	0.034 % dose kg./g.	75.1	24.9	303.1	1.6	89.8	137.4
CCCC[75Se]C[C@@H]1C[C@@H]2[C@H](CC[C@]3(C)[C@@H]([C@H](C)CCCC(C)C)CC[C@@H]23)C2=C1C[C@@H](O)CC2 [Example 3, 6β-butylselenomethyl-19-norcholest-5(10)-en-3β-ol-^75 Se]	2.553 % dose kg./g.	7.563 % dose kg./g.	0.009 % dose kg./g.	0.052 % dose kg./g.	0.096 % dose kg./g.	0.012 % dose kg./g.	0.023 % dose kg./g.	144.8	79.0	809.6	4.0	268.3	581.9
CC(C)CCC[C@@H](C)[C@H]1CC[C@H]2[C@@H]3C[C@@H](C[75Se]c4ccccc4)C4=C(CC[C@H](O)C4)[C@H]3CC[C@]12C [Example 8, 6β-phenylselenomethyl-19-norcholest-5(10)-en-3β-ol-^75 Se]	2.578 % dose kg./g.	5.934 % dose kg./g.	0.021 % dose kg./g.	0.062 % dose kg./g.	0.144 % dose kg./g.	0.015 % dose kg./g.	0.039 % dose kg./g.	109.1	40.0	418.9	3.62	171.2	285.8
